Measurements as given in the NIST ThermoML archive (doi:10.1016/j.jct.2018.04.015).
± gives the expanded uncertainty stated by the source.

Assay: mn = molality of the nth substance listed, in mol/kg
Details: 100 kPa, Liquid; for viscosity: Capillary tube (Ostwald / Ubbelohde) method; for mass density: Vibrating tube method

C[N+](C)(C)CCO.[Cl-] [choline chloride] + O
Details	mass density, 293.15 K [kg/m3]	mass density, 298.15 K [kg/m3]	mass density, 303.15 K [kg/m3]	mass density, 308.15 K [kg/m3]	mass density, 313.15 K [kg/m3]	viscosity, 293.15 K [mPa·s]	viscosity, 298.15 K [mPa·s]	viscosity, 303.15 K [mPa·s]	viscosity, 308.15 K [mPa·s]	viscosity, 313.15 K [mPa·s]
m1 = 0.08502	999.63 ± 1.5	998.44 ± 1.5	997.02 ± 1.5	995.39 ± 1.5	993.55 ± 1.5	–	–	–	–	–
m1 = 0.09081	–	–	–	–	–	1.034 ± 0.022	0.916 ± 0.019	0.819 ± 0.017	0.737 ± 0.015	0.668 ± 0.014
m1 = 0.1494	–	–	–	–	–	1.049 ± 0.022	0.929 ± 0.019	0.831 ± 0.017	0.748 ± 0.016	0.678 ± 0.014
m1 = 0.15	1000.68 ± 1.5	999.47 ± 1.5	998.03 ± 1.5	996.38 ± 1.5	994.52 ± 1.5	–	–	–	–	–
m1 = 0.2002	1001.48 ± 1.5	1000.25 ± 1.5	998.79 ± 1.5	997.13 ± 1.5	995.25 ± 1.5	–	–	–	–	–
m1 = 0.2056	–	–	–	–	–	1.062 ± 0.022	0.941 ± 0.02	0.841 ± 0.018	0.757 ± 0.016	0.686 ± 0.014
m1 = 0.2501	1002.25 ± 1.5	1001 ± 1.5	999.53 ± 1.5	997.85 ± 1.5	995.96 ± 1.5	–	–	–	–	–
m1 = 0.2998	–	–	–	–	–	1.082 ± 0.023	0.959 ± 0.02	0.858 ± 0.018	0.772 ± 0.016	0.7 ± 0.015
m1 = 0.3003	1003.03 ± 1.5	1001.75 ± 1.5	1000.27 ± 1.5	998.57 ± 1.5	996.66 ± 1.5	–	–	–	–	–
m1 = 0.3503	1003.78 ± 1.5	1002.49 ± 1.5	1000.99 ± 1.5	999.27 ± 1.5	997.34 ± 1.5	–	–	–	–	–
m1 = 0.3511	–	–	–	–	–	1.093 ± 0.023	0.968 ± 0.02	0.867 ± 0.018	0.78 ± 0.016	0.708 ± 0.015
m1 = 0.3997	1004.52 ± 1.5	1003.22 ± 1.5	1001.7 ± 1.5	999.95 ± 1.5	998 ± 1.5	–	–	–	–	–
m1 = 0.4226	–	–	–	–	–	1.107 ± 0.023	0.981 ± 0.02	0.878 ± 0.018	0.791 ± 0.017	0.718 ± 0.015
m1 = 0.4502	1005.27 ± 1.5	1003.94 ± 1.5	1002.41 ± 1.5	1000.64 ± 1.5	998.67 ± 1.5	–	–	–	–	–
m1 = 0.489	–	–	–	–	–	1.119 ± 0.023	0.993 ± 0.021	0.889 ± 0.019	0.801 ± 0.017	0.728 ± 0.015
m1 = 0.499	1005.99 ± 1.5	1004.64 ± 1.5	1003.08 ± 1.5	1001.3 ± 1.5	999.3 ± 1.5	–	–	–	–	–
